Reference: patent publication US20240092835A1, “NOVEL PEPTIDES CAPABLE OF ALTERING NK CELL ACTIVITY” (Massachusetts Institute of Technology, priority 2022, published 2024)

Key:
NKG2A+/NKG2C− NK cells = assay: NK cell activation markers in NKG2A+/NKG2C- NK cells incubated with peptide and K562 expressing HLA-E (inhibition); assay type: cell-based, human; details: for percentage of CCL3+ NK cells / percentage of CD107a+ NK cells / percentage of IFNG+ NK cells / percentage of TNF+ NK cells: NKG2A+/NKG2C- NK cells, K562/HLA-E
Summary of the method: (§1)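 Human myelogenous leukemia K562 cells displaying HLA-E carry the test peptides (human or HCMV origin) and are presented to NK cells; surface activation markers are scored by percent positive cells.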

NKG2A−/NKG2C+ NK cells [1] = assay: NK cell activation markers in NKG2A-/NKG2C+ NK cells incubated with peptide and K562 expressing HLA-E (activation); assay type: cell-based, human; details: for percentage of CCL3+ NK cells / percentage of CD107+ NK cells / percentage of IFNG+ NK cells / percentage of TNF+ NK cells: NKG2A-/NKG2C+ NK cells, K562/HLA-E
Summary of the method: as §1

NKG2A−/NKG2C− NK cells = assay: NK cell activation markers in control NKG2A-/NKG2C- NK cells incubated with peptide and K562 expressing HLA-E; assay type: cell-based, human
Summary of the method: as §1

NKG2A−/NKG2C+ NK cells [2] = assay: NKG2A-/NKG2C+ NK cell activation with peptide and RMA-S cells expressing HLA-E; assay type: cell-based; details: RMA-S cells expressing HLA-E
Procedure: An antigen processing-defective lymphoma cell line (RMA-S), with a low-level expression of HLA-E, were incubated with the novel peptides to determine the inhibitory strength on NKG2A−/NKG2C+NK cells relative to positive control sequences with differential effects ([…] (SEQ ID NO: 19)/VMAPRTLFL (SEQ ID NO: 18)). The effects of the peptides on NK cell inhibition were determined by measuring four markers of NK cell activation (CD107a, IFNG, TNF, CCL3) in NKG2A−/NKG2C+NK cells (FIGS. 2A-2D). Activation was indicated by an increase in percent cells positive for cell surface markers.

HLA-E = biological target: T1, HLA-E (Homo sapiens, UniProt P13747); assay: HLA-E surface stabilization assay with RMA-S/HLA-E cells; assay type: cell-based; details: 30 μM peptide, 16 hours; for HLA-E surface expression stability (GeoMFI): anti-HLA-E antibody
T1 construct: expressed in transfected cells; host or cells: RMA-S/HLA-E cells (antigen processing-defective lymphoma cell line)
Procedure: HLA-E surface expression was assessed by measuring geometric mean fluorescence intensity (GeoMFI) in RMA-S cells following immunofluorescence staining with an anti-HLA-E antibody (Table 14). Increased GeoMFI was indicative of increased HLA-E surface expression stability following novel peptide exposures (FIG. 3).

[3] = K562 expressing HLA-E, CD107a, IFNG, TNF, CCL3

T1 sequence (P13747 22-358): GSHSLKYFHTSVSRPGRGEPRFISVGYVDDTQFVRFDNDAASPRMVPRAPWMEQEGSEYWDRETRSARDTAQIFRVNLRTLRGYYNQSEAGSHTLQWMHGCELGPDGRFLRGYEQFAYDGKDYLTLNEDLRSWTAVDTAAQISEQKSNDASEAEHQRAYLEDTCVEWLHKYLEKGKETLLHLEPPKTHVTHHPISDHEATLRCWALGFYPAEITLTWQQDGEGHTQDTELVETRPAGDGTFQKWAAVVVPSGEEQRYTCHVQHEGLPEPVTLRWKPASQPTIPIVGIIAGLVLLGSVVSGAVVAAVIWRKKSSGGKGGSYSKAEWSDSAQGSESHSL
T1 sequence (P61769 21-119 partner): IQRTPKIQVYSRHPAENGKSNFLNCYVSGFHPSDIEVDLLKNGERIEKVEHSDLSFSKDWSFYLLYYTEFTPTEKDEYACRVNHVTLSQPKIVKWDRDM

NMPARTVLF [human14, peptide MTREX 490-498 derived from the human proteome]
effect on NKG2A+/NKG2C− NK cell inhibition (in words) (NKG2A+/NKG2C− NK cells; [3]): strong inhibitory
percentage of CCL3+ NK cells (NKG2A+/NKG2C− NK cells; Trial 1): 3.55%
percentage of CD107a+ NK cells (NKG2A+/NKG2C− NK cells; Trial 1): 1.54%
percentage of IFNG+ NK cells (NKG2A+/NKG2C− NK cells; Trial 1): 0.3%
percentage of TNF+ NK cells (NKG2A+/NKG2C− NK cells; Trial 1): 0.12%
percentage of CCL3+ NK cells (NKG2A+/NKG2C− NK cells; Trial 2): 6.94%
percentage of CD107a+ NK cells (NKG2A+/NKG2C− NK cells; Trial 2): 2.38%
percentage of IFNG+ NK cells (NKG2A+/NKG2C− NK cells; Trial 2): 0.79%
percentage of TNF+ NK cells (NKG2A+/NKG2C− NK cells; Trial 2): 0.31%
percentage of CCL3+ NK cells (NKG2A+/NKG2C− NK cells; Trial 3): 6.08%
percentage of CD107a+ NK cells (NKG2A+/NKG2C− NK cells; Trial 3): 3.66%
percentage of IFNG+ NK cells (NKG2A+/NKG2C− NK cells; Trial 3): 2.62%
percentage of TNF+ NK cells (NKG2A+/NKG2C− NK cells; Trial 3): 1.09%
percentage of CCL3+ NK cells (NKG2A+/NKG2C− NK cells; Trial 4): 3.51%
percentage of CD107a+ NK cells (NKG2A+/NKG2C− NK cells; Trial 4): 2.52%
percentage of IFNG+ NK cells (NKG2A+/NKG2C− NK cells; Trial 4): 0.83%
percentage of TNF+ NK cells (NKG2A+/NKG2C− NK cells; Trial 4): 0.55%
percentage of CCL3+ NK cells (NKG2A+/NKG2C− NK cells; Trial 5): 17%
percentage of CD107a+ NK cells (NKG2A+/NKG2C− NK cells; Trial 5): 4.05%
percentage of IFNG+ NK cells (NKG2A+/NKG2C− NK cells; Trial 5): 2.12%
percentage of TNF+ NK cells (NKG2A+/NKG2C− NK cells; Trial 5): 0.89%
percentage of CCL3+ NK cells (NKG2A+/NKG2C− NK cells; Trial 6): 2.66%
percentage of CD107a+ NK cells (NKG2A+/NKG2C− NK cells; Trial 6): 1.16%
percentage of IFNG+ NK cells (NKG2A+/NKG2C− NK cells; Trial 6): 0.43%
percentage of TNF+ NK cells (NKG2A+/NKG2C− NK cells; Trial 6): 0.14%
effect on NKG2A−/NKG2C+ NK cell activation (in words) (NKG2A−/NKG2C+ NK cells [1]; [3]): strong inhibitory and activating effects
percentage of CCL3+ NK cells (NKG2A−/NKG2C+ NK cells [1]; Trial 1): 70.6%
percentage of CD107+ NK cells (NKG2A−/NKG2C+ NK cells [1]; Trial 1): 61.3%
percentage of IFNG+ NK cells (NKG2A−/NKG2C+ NK cells [1]; Trial 1): 45.6%
percentage of TNF+ NK cells (NKG2A−/NKG2C+ NK cells [1]; Trial 1): 31.9%
percentage of CCL3+ NK cells (NKG2A−/NKG2C+ NK cells [1]; Trial 2): 87.5%
percentage of CD107+ NK cells (NKG2A−/NKG2C+ NK cells [1]; Trial 2): 83.1%
percentage of IFNG+ NK cells (NKG2A−/NKG2C+ NK cells [1]; Trial 2): 72.7%
percentage of TNF+ NK cells (NKG2A−/NKG2C+ NK cells [1]; Trial 2): 65.1%
percentage of CCL3+ NK cells (NKG2A−/NKG2C+ NK cells [1]; Trial 3): 82.5%
percentage of CD107+ NK cells (NKG2A−/NKG2C+ NK cells [1]; Trial 3): 85%
percentage of IFNG+ NK cells (NKG2A−/NKG2C+ NK cells [1]; Trial 3): 74.2%
percentage of TNF+ NK cells (NKG2A−/NKG2C+ NK cells [1]; Trial 3): 65%
percentage of CCL3+ NK cells (NKG2A−/NKG2C+ NK cells [1]; Trial 4): 61.1%
percentage of CD107+ NK cells (NKG2A−/NKG2C+ NK cells [1]; Trial 4): 59.1%
percentage of IFNG+ NK cells (NKG2A−/NKG2C+ NK cells [1]; Trial 4): 47.5%
percentage of TNF+ NK cells (NKG2A−/NKG2C+ NK cells [1]; Trial 4): 40%
percentage of CCL3+ NK cells (NKG2A−/NKG2C+ NK cells [1]; Trial 5): 71.8%
percentage of CD107+ NK cells (NKG2A−/NKG2C+ NK cells [1]; Trial 5): 70.5%
percentage of IFNG+ NK cells (NKG2A−/NKG2C+ NK cells [1]; Trial 5): 61.9%
percentage of TNF+ NK cells (NKG2A−/NKG2C+ NK cells [1]; Trial 5): 57.9%
percentage of CCL3+ NK cells (NKG2A−/NKG2C+ NK cells [1]; Trial 6): 52.1%
percentage of CD107+ NK cells (NKG2A−/NKG2C+ NK cells [1]; Trial 6): 44.3%
percentage of IFNG+ NK cells (NKG2A−/NKG2C+ NK cells [1]; Trial 6): 30.5%
percentage of TNF+ NK cells (NKG2A−/NKG2C+ NK cells [1]; Trial 6): 21.8%
percentage CCL3+ NK cells (NKG2A−/NKG2C− NK cells; Trial 1): 29.3%
percentage CD107+ NK cells (NKG2A−/NKG2C− NK cells; Trial 1): 20.9%
percentage TNF+ NK cells (NKG2A−/NKG2C− NK cells; Trial 1): 2.61%
percentage of IFNG+ NK cells (NKG2A−/NKG2C− NK cells; Trial 1): 12.1%
percentage CCL3+ NK cells (NKG2A−/NKG2C− NK cells; Trial 2): 54.7%
percentage CD107+ NK cells (NKG2A−/NKG2C− NK cells; Trial 2): 31.4%
percentage TNF+ NK cells (NKG2A−/NKG2C− NK cells; Trial 2): 9.25%
percentage of IFNG+ NK cells (NKG2A−/NKG2C− NK cells; Trial 2): 27.7%
percentage CCL3+ NK cells (NKG2A−/NKG2C− NK cells; Trial 3): 44%
percentage CD107+ NK cells (NKG2A−/NKG2C− NK cells; Trial 3): 43.7%
percentage TNF+ NK cells (NKG2A−/NKG2C− NK cells; Trial 3): 17.1%
percentage of IFNG+ NK cells (NKG2A−/NKG2C− NK cells; Trial 3): 36.5%
percentage CCL3+ NK cells (NKG2A−/NKG2C− NK cells; Trial 4): 29.2%
percentage CD107+ NK cells (NKG2A−/NKG2C− NK cells; Trial 4): 25.6%
percentage TNF+ NK cells (NKG2A−/NKG2C− NK cells; Trial 4): 8.96%
percentage of IFNG+ NK cells (NKG2A−/NKG2C− NK cells; Trial 4): 17.5%
percentage CCL3+ NK cells (NKG2A−/NKG2C− NK cells; Trial 5): 26.9%
percentage CD107+ NK cells (NKG2A−/NKG2C− NK cells; Trial 5): 21.8%
percentage TNF+ NK cells (NKG2A−/NKG2C− NK cells; Trial 5): 7.19%
percentage of IFNG+ NK cells (NKG2A−/NKG2C− NK cells; Trial 5): 16.7%
percentage CCL3+ NK cells (NKG2A−/NKG2C− NK cells; Trial 6): 20.9%
percentage CD107+ NK cells (NKG2A−/NKG2C− NK cells; Trial 6): 16.7%
percentage TNF+ NK cells (NKG2A−/NKG2C− NK cells; Trial 6): 2.97%
percentage of IFNG+ NK cells (NKG2A−/NKG2C− NK cells; Trial 6): 7.36%
NKG2A−/NKG2C+ NK cell activation relative to positive control peptides (in words) (NKG2A−/NKG2C+ NK cells [2]): decreased NK cell activation relative to the positive control peptides
HLA-E surface expression stability (GeoMFI) (HLA-E; Trial 1): 1304 GeoMFI
HLA-E surface expression stability (GeoMFI) (HLA-E; Trial 2): 1364 GeoMFI
HLA-E surface expression stability (GeoMFI) (HLA-E; Trial 3): 1005 GeoMFI
HLA-E surface expression stability (GeoMFI) (HLA-E; Trial 4): 1738 GeoMFI
HLA-E surface expression stabilization strength, approximate GeoMFI (HLA-E; approximate value): approximately 1×10^3 GeoMFI
